Residue numbers refer to the chain shown, from its start.
Key:
[1] = test system: EPSPS of the glyphosate sensitive E. indica biotype (wild type, plant crown extract); experiment: radiometric EPSP synthase assay, glyphosate inhibition, plant extracts of sensitive biotype; type: biochemical, Eleusine indica; conditions: read-out: I50 (glyphosate); 1 mM shikimate-3-phosphate, 0.5 mM PEP, pH 7.0, 25° C.
Procedure: Preparation of extracts and radiometric EPSP synthase assays are performed using methods adapted from published procedures (Padgette et al., J. Biol. Chem. 266:22364-22369 (1991). Crown regions are dissected from whole plants, pulverized under liquid nitrogen with a mortar and pestle, then stored at −80° C. prior to extraction. Homogenates are prepared from 0.5 g tissue per sample in 25 ml extraction buffer (100 mM TrisCl, 10% glycerol, 1 mM EDTA, 1 mM benzamidine, 1 mM dithiothreitol, 1 mM 4-(2-aminoethyl)-benzenesulfonyl floride HCl, 0.1 mM leupeptin, pH 7.4) at 4° C. using a model PT3000 Polytron homogenizer (Brinkman Instuments Inc., Westbury, N.Y.). Debris is removed by 0.2 μm filtration, then the resulting supernatant is concentrated and desalted using an Ultrafree-15 centrifugal filtration unit (cat.#UFV2-BGC-10, Millipore Corp., Bedford, Mass.). Final sample volumes are approximately 0.5 ml. Protein concentrations are determined spectrophotometrically using the Bio-Rad protein assay reagent (cat.#500-0006, Bio-Rad Laboratories, Hercules, Calif.). EPSPS specific activities are determined by assaying 10 μl extract at 25° C. for 5-15 min. […] Reactions are quenched with the addition of 50 μl 9:1 ethanol: 0.1 M acetic acid. […]

[2] = target: T1, P. hybrida EPSPS variant glypR (Pro-Ser) (Petunia hybrida, UniProt P11043, P178S); experiment: kinetic characterization of EPSP synthase (Table 4); type: biochemical
T1 sequence (P11043 73-516 P178S): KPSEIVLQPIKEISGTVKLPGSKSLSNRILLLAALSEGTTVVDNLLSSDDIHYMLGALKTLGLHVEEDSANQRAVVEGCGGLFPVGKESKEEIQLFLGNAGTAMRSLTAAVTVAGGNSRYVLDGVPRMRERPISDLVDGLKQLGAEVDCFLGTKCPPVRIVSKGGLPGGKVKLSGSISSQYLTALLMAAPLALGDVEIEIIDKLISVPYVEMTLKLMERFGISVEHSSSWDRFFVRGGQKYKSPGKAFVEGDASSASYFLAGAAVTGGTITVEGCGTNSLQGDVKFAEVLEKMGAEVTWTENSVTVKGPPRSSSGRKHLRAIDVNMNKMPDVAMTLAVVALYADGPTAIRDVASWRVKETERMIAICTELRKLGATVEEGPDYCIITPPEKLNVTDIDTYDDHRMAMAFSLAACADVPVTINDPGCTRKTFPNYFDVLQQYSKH
Procedure: (§1) Final sample volumes are approximately 0.5 ml.

[3] = target: T2, Z. mays EPSPS variant glypR (Thr-Ile, Pro-Ser) (Zea mays, UniProt A0A1D6NVZ6, P168S/T164I); experiment: as above; type: biochemical; conditions: read-out: apparent Ki for glyphosate; with respect to PEP, saturating S3P
T2 sequence (A0A1D6NVZ6 63-506 T164I/P168S limits assumed): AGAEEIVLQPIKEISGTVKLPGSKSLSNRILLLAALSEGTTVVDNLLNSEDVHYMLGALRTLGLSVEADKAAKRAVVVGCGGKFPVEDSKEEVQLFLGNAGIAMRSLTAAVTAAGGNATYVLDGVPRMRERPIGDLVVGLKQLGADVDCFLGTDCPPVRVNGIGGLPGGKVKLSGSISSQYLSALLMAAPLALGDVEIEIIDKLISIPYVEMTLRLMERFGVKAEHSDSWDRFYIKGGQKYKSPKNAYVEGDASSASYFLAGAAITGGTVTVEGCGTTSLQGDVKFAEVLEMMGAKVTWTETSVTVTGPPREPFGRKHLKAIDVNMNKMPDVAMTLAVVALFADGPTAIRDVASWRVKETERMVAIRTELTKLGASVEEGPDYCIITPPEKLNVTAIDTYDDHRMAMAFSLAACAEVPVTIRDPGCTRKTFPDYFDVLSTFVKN
Procedure: as §1

[4] = target: T3, E. indica glypS EPSPS (Eleusine indica, naturally occurring glyphosate sensitive, wild type) (Eleusine indica, UniProt Q95AK0); experiment: as above; type: biochemical
T3 construct: plant extract or E. coli SR481 extract
T3 sequence (Q95AK0 1-445): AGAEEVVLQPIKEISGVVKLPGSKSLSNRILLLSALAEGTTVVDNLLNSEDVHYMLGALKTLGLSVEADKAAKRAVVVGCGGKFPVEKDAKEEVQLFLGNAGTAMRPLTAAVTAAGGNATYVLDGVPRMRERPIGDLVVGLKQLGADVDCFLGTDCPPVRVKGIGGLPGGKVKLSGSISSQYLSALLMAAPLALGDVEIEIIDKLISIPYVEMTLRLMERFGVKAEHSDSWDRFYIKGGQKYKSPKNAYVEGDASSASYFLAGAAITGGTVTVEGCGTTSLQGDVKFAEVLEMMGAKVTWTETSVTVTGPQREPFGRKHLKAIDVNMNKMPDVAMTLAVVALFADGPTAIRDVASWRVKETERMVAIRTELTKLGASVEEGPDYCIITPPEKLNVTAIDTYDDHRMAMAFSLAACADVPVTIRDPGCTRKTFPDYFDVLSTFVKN
Procedure: as §1

[5] = target: T4, P. hybrida EPSPS variant glypR (Gly-Ala, Pro-Ser) (Petunia hybrida, UniProt P11043, G173A/P178S); experiment: as above; type: biochemical
T4 sequence (P11043 73-516 G173A/P178S): T1 sequence (P11043 73-516 P178S) with G101A
Procedure: as §1

[6] = target: T5, Z. mays glypS (wt) EPSPS (Zea mays, glyphosate sensitive, wild type) (Zea mays, UniProt A0A1D6NVZ6); experiment: as above; type: biochemical
T5 sequence (A0A1D6NVZ6 63-506 limits assumed): T2 sequence (A0A1D6NVZ6 63-506 T164I/P168S limits assumed) with I102T, S106P
Procedure: as §1

[7] = test system: native EPSPS from E. coli (wild type); conditions: read-out: apparent Ki for glyphosate; cited from earlier work

## O=C(O)CNCP(=O)(O)O [glyphosate, N-phosphonomethylglycine]
[1]
  IC50: ~3 µM
[2]
  Ki: 3 µM
[3]
  Ki: 60 µM
[4]
  Ki: 0.05 µM
[5]
  Ki: 8500 µM
[6]
  Ki: 0.2 µM
[7]
  Ki: 0.5 µM
